{
  "source": "paper PMC11524583",
  "about": "“Neurons enhance blood–brain barrier function via upregulating claudin-5 and VE-cadherin expression due to glial cell line-derived neurotrophic factor secretion” (eLife, 2024)",
  "key": {"VE-cadherin": {"tested_on": "VE-cadherin", "assay": "Western blot of VE-cadherin expression in hCMEC/D3 cells", "assay_type": "cell-based, Homo sapiens", "conditions": "for VE-cadherin/β-actin Relative Expression, Mean / VE-cadherin/β-actin Relative Expression: Figure 2G; for VE-cadherin/β-actin Relative Expression, Mean: Con = 1.000; for VE-cadherin/β-actin Relative Expression: relative to Con, single replicates", "method": "(§1) Whole-cell and tissue lysates, nucleoprotein, and cytoplasmic protein were prepared using RIPA Lysis Buffer (Beyotime, Shanghai, China) as the described method ([Wu et al., 2021]). Proteins were separated through sodium dodecyl sulfate–polyacrylamide gel electrophoresis and transferred onto nitrocellulose or polyvinylidene difluoride membranes. The membranes were blocked with 5% skim milk and incubated with corresponding primary antibodies at 4°C overnight. After being washed with Tris-buffered saline Tween buffer, the membranes were incubated with secondary antibodies (Cell Signaling Technology, MA, USA) at 1:3000 dilution: Anti-mouse IgG, HRP-linked Antibody (#7076), Anti-rabbit IgG, HRP-linked Antibody (#7074). Protein levels were visualized using a highly sensitive ECL western blotting substrate and a gel imaging system (Tanon Science & Technology, Shanghai, China).\n(§2) CM of U251 cells (U-CM), SH-SY5Y cells (S-CM), or co-culture of U251 and SH-SY5Y cells (US-CM) was prepared. U251 cells were seeded at the top of the insert membrane and suspended on 6-well plates seeded with differentiated SH-SY5Y cells to co-culture U251 cells with SH-SY5Y cells. The medium was collected every 24 hr. The CMs were subsequently used for hCMEC/D3 cell culture after filtrating with 0.2 μm filters for 144 hr. The levels of GDNF, bFGF, IGF-1, and TGF-β in CMs were measured using corresponding ELISA kits according to the manufacturers’ instructions.\n(§3) Exogenous and endogenous GDNF in the medium was neutralized with anti-GDNF antibody (#AF-212-NA, R&D system, Minneapolis, MN, USA). 0.25, 0.5, and 1.0 μg/ml anti-GDNF antibody was added into the US-CM or medium containing 200 pg/ml GDNF, and then the medium was preincubated at 4°C for 1 hr. The hCMEC/D3 cells were incubated with 200 pg/ml GDNF or US-CM containing anti-GDNF antibody or not for 6 days, and then cell lysate was collected for western blot. The medium was replaced every 24 hr.\n(§4) Here, hCMEC/D3 cells were plated in the plates or culture dishes at 6 × 10^4 cells/cm^2 and transfected with 10 nM of negative control or human FOXO1, ETS1, and CDH5 siRNA (Tsingke Biotechnology, Beijing, China) for 12 hr using Lipofectamine 3000 (Invitrogen, Carlsbad, CA, USA) reagent according to the manufacturer’s instructions. Cells were then incubated with a medium containing GDNF for 72 hr."}, "claudin-5": {"tested_on": "claudin-5", "assay": "Western blot of claudin-5 expression in hCMEC/D3 cells", "assay_type": "cell-based, Homo sapiens", "conditions": "for Claudin-5/β-actin Relative Expression, Mean / Claudin-5/β-actin Relative Expression: Figure 2G; for Claudin-5/β-actin Relative Expression, Mean: Con = 1.000; for Claudin-5/β-actin Relative Expression: relative to Con, single replicates", "method": "as §1, §2, §3, §4\nThe plasmids encoding FOXO1 (EX-Z7404-M02) were constructed by GeneCopoeia (Rockville, MD, USA). The hCMEC/D3 cells were plated in plates or dishes at 6 × 10^4 cells/cm^2. They were subsequently transfected with 1 µg of negative control or plasmids encoding FOXO1 6 hr using Lipofectamine 3000 reagent according to the manufacturer’s instructions. Transfected cells were then incubated with the medium containing GDNF for 72 hr."}, "[1]": {"conditions": "in situ brain perfusion in rodents; published permeability multiplied by VSA 150 cm^2/g; ref Summerfield et al., 2007; cited from earlier work"}, "[2]": {"conditions": "unbound fraction in brain, cited from earlier work"}, "in vitro [3]": {"assay": "in vitro", "conditions": "human, Papp, Triple"}, "in vitro [4]": {"assay": "in vitro", "conditions": "human"}, "[5]": {"tested_on": "hCMEC/D3 mono-culture BBB model", "conditions": "human"}, "[6]": {"tested_on": "hCMEC/D3 mono-culture BBB model", "assay": "In vitro BBB permeability study (Papp), hCMEC/D3 mono-culture BBB model", "conditions": "Mono-culture BBB Model; PS worked out from mean Papp"}, "[7]": {"tested_on": "triple co-culture BBB model (hCMEC/D3, U251 and SH-SY5Y cells)", "assay": "In vitro BBB permeability study (Papp), triple co-culture BBB model", "conditions": "Triple co-culture BBB model; PS worked out from mean Papp"}, "[8]": {"conditions": "hCMEC/D3 cells, 200 pg/ml GDNF, 3 μM SPP-86, 5 μM PP2, 3 μM LY294002, 2 μM U0126, 5 μM SP600125, 2 μM SB203580, anti-GDNF antibody 0.25, 0.5, 1.0 μg/ml"}},
  "note": "Where “and” joins values, the source holds several entries; their conditions need not be identical. Equal values may be shown once. Read-outs that look alike come from different tables or passages of the source. Marks after values point to notes of the source that are not given here.",
  "data": [
    {"compound": "C[S+]([O-])c1ccc(-c2nc(-c3ccncc3)c(-c3ccc(F)cc3)[nH]2)cc1", "note": "(centres unmarked) [SB203580, reference compound]", "values": [
      {"measurement": "GDNF-induced VE-cadherin expression", "setting": "VE-cadherin; [8]", "result": "almost no effect"},
      {"measurement": "GDNF-induced claudin-5 expression", "setting": "claudin-5; [8]", "result": "almost no effect"}
    ]},
    {"compound": "Cc1cc2c(s1)Nc1ccccc1N=C2N1CCN(C)CC1", "note": "[Olanzapine]", "values": [
      {"measurement": "PSObs", "setting": "[1]", "result": "2279.70^† μl/min/g"},
      {"measurement": "fu, brain", "setting": "[2]; ref Summerfield et al., 2007", "result": "0.034^†"}
    ]},
    {"compound": "CC(NC(C)(C)C)C(=O)c1cccc(Cl)c1", "note": "(centres unmarked) [Bupropion]", "values": [
      {"measurement": "fu, brain", "setting": "[2]; ref Bhattacharya et al., 2021", "result": "0.12^§"},
      {"measurement": "Papp A→B at 30 min", "setting": "in vitro [3]", "result": "11.3 ± 0.44", "unit": "×10⁻⁶ cm/s"},
      {"measurement": "Papp A→B at 30 min", "setting": "in vitro [4]; Papp, Mono", "result": "15.2 ± 0.2", "unit": "×10⁻⁶ cm/s"},
      {"measurement": "PSPre, Mono", "setting": "[5]", "result": 1139.58, "unit": "µL/min/g"}
    ]},
    {"compound": "TGF-β", "values": [
      {"measurement": "VE-cadherin/β-actin Relative Expression, Mean", "setting": "VE-cadherin; 0.5 ng", "result": 1.041},
      {"measurement": "VE-cadherin/β-actin Relative Expression", "setting": "VE-cadherin; 0.5 ng", "result": "1.060 and 0.953 and 1.005 and 1.147"},
      {"measurement": "VE-cadherin/β-actin Relative Expression, Mean", "setting": "VE-cadherin; 2 ng", "result": 1.010},
      {"measurement": "VE-cadherin/β-actin Relative Expression", "setting": "VE-cadherin; 2 ng", "result": "0.849 and 1.087 and 1.125 and 0.979"},
      {"measurement": "VE-cadherin/β-actin Relative Expression, Mean", "setting": "VE-cadherin; 5 ng", "result": 0.834},
      {"measurement": "VE-cadherin/β-actin Relative Expression", "setting": "VE-cadherin; 5 ng", "result": "0.847 and 0.832 and 0.952 and 0.705"},
      {"measurement": "Claudin-5/β-actin Relative Expression, Mean", "setting": "claudin-5; 0.5 ng", "result": 0.967},
      {"measurement": "Claudin-5/β-actin Relative Expression", "setting": "claudin-5; 0.5 ng", "result": "0.910 and 1.017 and 1.003 and 0.937"},
      {"measurement": "Claudin-5/β-actin Relative Expression, Mean", "setting": "claudin-5; 2 ng", "result": 0.982},
      {"measurement": "Claudin-5/β-actin Relative Expression", "setting": "claudin-5; 2 ng", "result": "0.870 and 1.019 and 1.090 and 0.947"},
      {"measurement": "Claudin-5/β-actin Relative Expression, Mean", "setting": "claudin-5; 5 ng", "result": 0.716},
      {"measurement": "Claudin-5/β-actin Relative Expression", "setting": "claudin-5; 5 ng", "result": "0.653 and 0.618 and 0.959 and 0.634"},
      {"measurement": "claudin-5 expression", "setting": "claudin-5; hCMEC/D3 cells, high level (5 ng/ml) of TGF-β", "result": "slightly downregulated"}
    ]},
    {"compound": "NCC1(CC(=O)O)CCCCC1", "note": "[Gabapentin]", "values": [
      {"measurement": "PSObs", "setting": "[1]", "result": "162.90^† μl/min/g"},
      {"measurement": "fu, brain", "setting": "[2]; ref Summerfield et al., 2007", "result": "0.782^†"},
      {"measurement": "Papp A→B", "setting": "in vitro [3]; apical to basolateral, 30 min, 37°C, day 6, mean ± SEM, four biological replicates", "result": "8.78 ± 0.23", "unit": "×10⁻⁶ cm/s"},
      {"measurement": "Papp A→B", "setting": "in vitro [4]; Papp Mean, Mono-culture BBB Model, mean of 4 replicates", "result": 16.7, "unit": "×10⁻⁶ cm/s"},
      {"measurement": "PS", "setting": "[6]", "result": 192.77, "unit": "µL/min/g"},
      {"measurement": "PS", "setting": "[7]", "result": 101.05, "unit": "µL/min/g"},
      {"measurement": "PSPre, Mono", "setting": "[5]", "result": 192.77, "unit": "µL/min/g"}
    ]},
    {"compound": "Cc1nc2n(c(=O)c1CCN1CCC(c3noc4cc(F)ccc34)CC1)CCCC2", "note": "[Risperidone]", "values": [
      {"measurement": "PSObs", "setting": "[1]", "result": "849.60^† μl/min/g"}
    ]},
    {"compound": "CNCCC(Oc1ccc(C(F)(F)F)cc1)c1ccccc1", "note": "(centres unmarked) [Fluoxetine]", "values": [
      {"measurement": "fu, brain", "setting": "[2]; ref Liu et al., 2005", "result": 0.00094},
      {"measurement": "fu, brain", "setting": "[2]; ref Maurer et al., 2005", "result": 0.0023},
      {"measurement": "fu, brain", "setting": "[2]; ref Summerfield et al., 2007", "result": "0.004^†"}
    ]}
  ]
}
